The values that follow come from US8236809B2, “Substituted 1,2,3-triazolopyrimidines for the inhibition of NAD(P)H oxidases and platelet activation” (Vasopharm GmbH, priority 2004, dated 2012).

As usually defined, the inhibition is the change of the read-out against control, counted positive when it falls.

Chain of NAD(P)H oxidases (NOX) in HL-60 cells (Homo sapiens, UniProt P04839) (P04839 whole entry): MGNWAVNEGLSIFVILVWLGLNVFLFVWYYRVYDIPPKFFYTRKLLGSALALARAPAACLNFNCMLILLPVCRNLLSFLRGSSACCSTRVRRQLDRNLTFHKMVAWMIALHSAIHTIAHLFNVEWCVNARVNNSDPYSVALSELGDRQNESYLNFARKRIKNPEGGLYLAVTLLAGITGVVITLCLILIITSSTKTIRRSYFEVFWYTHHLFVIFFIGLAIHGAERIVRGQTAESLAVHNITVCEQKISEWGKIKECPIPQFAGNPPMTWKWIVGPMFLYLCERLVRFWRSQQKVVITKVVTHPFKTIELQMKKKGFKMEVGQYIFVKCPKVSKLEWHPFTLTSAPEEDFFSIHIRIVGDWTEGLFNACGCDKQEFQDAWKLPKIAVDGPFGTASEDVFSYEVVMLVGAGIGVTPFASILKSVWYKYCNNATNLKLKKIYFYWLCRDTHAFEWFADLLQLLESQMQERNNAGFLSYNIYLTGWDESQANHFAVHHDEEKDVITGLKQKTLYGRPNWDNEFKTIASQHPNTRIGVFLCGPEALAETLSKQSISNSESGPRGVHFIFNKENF

The first assay concerns the target NAD(P)H oxidases (NOX) in HL-60 cells (Homo sapiens, UniProt P04839). The experiment in a line: Assay of NOX activity: cytochrome C reduction in PMA-stimulated differentiated HL-60 cells. The assay is classed as cell-based. Particulars: HL-60; DPI final conc. 10 μM, control inhibitor; 'usually'; read-out: Residual activity of DPI-treated cells (NOX activity as % of the activity in PMA-stimulated control cells).
Protocol: (§1) Measurement of cytochrome C-reduction was used to assess the NOX-activity in HL-60 cells.
(§2) The human acute myeloid leukemia cell line HL-60 (ECACC 98070106) was cultured in RPMI 1640 (Biochrom, Berlin, Germany) supplemented with 5% heat-inactivated calf serum, 2 mM glutamine (GLUTAMAX, Invitrogen, Karlsruhe, Germany), 100 U/ml penicillin (Sigma, Taufkirchen, Germany), and 100 μg/ml streptomycin (Sigma, Taufkirchen, Germany) at 37° C. under a humidified atmosphere of 5% CO2. Cells were maintained at 0.1−2.0×10^6 cells/ml. To induce myeloid differentiation, the cells were seeded to a density of 0.5×10^6 cells/ml and cultivated for 6 days in medium containing 1.25% (v/v) dimethylsulfoxide (DMSO). […]
(§3) E550 and E540 were measured once before stimulation of the cells on a micro-plate reader (Multiskan Spektrum, Thermo Electron Corporation, Dreieich, Germany). E540 was the isosbestic point and used to normalize absorbance at 550 nm (E550/E540). […]
(§4) The plate was shaken for 10 sec in the micro-plate reader and then incubated at 37° C. under a humidified atmosphere of 5% CO2. E550 and E540 were measured after 60 and 120 min.
(§5) For calculation, the absorbance at 550 nm was normalized to absorbance at the isosbestic point at 540 nm for each individual well. […] NOX-activities were expressed as % of the activity in PMA-stimulated control cells. […]
In the case of `c1ccc2c(c1)[I+]c1ccccc1-2` [DPI, Diphenyleneiodonium chloride], the activity at 10 µM is below 10%.

The next assay relates to NAD(P)H oxidases (NOX) in HL-60 cells. The assay is described as above. It counts as cell-based, human. The settings on record: 100 U/ml superoxide dismutase, used as a control in some experiments.
Protocol: as §1, §2, §3, §4, §5
Turning to “SOD: superoxide dismutase from bovine erythrocytes, EC1.15.1.1, used as a control”, the “Inhibition of the signal by SOD” value is above 95%.

A further assay relates to platelets. Put plainly: Inhibition of thrombin-induced (TRAP-6) platelet activation: P-Selectin expression on washed platelets, flow cytometry. Particulars: Homo sapiens, 5 μmol/l compound, 1 min pre-incubation, washed platelets stimulated 2 min with TRAP-6, read-out: % Inhibition of activation (percent reduction of TRAP-6 induced P-Selectin expression). The assay is classed as cell-based. How it is done:
Expression of P-Selectin on the surface of platelets was used as a marker of platelet activation.
All experiments were performed with washed platelets (PRP). Fresh venous blood from healthy volunteers (40 ml) was collected into 10 ml of 5-fold CCD-solution (7 mM citric acid, 100 mM trisodium citrate, 140 mM glucose, 15 mM EGTA as anti-coagulant, pH 6.5). Platelet rich plasma was prepared by centrifugation at 300 g for 20 min. The supernatant was collected and incubated for 10 min at room temperature. Platelets were pelleted from the supernatant by a second centrifugation step at 500 g for 20 min. The pellet was resuspended in 5 ml HEPES buffer (145 in M NaCl, 5 mM KCl, 1 in M MgCl2, 10 mM glucose, 10 mM HEPES, pH 7.4). Platelet concentration was adjusted to 3×10^8 platelets/ml with HEPES buffer.
Washed platelets (0.2 ml) were silenced for 1 h at room temperature in siliconised reaction tubes. After pre-incubation with compounds of example 1-11 for 1 min the washed platelets were stimulated for 2 min with thrombin receptor activating peptide (TRAP-6, BACHEM Biochemicals, Heidelberg, Germany).
As a positive control, 0.2 ml of washed platelets were pre-incubated with 10 μM of the NO-releasing compound sodium nitroprussid (SNP, Sigma, Deisenhofen).
After incubation, 20 μl of the sample was pipetted to 10 μl of FITC-labelled anti-CD62P antibody (DAKO, Glostrup, Denmark) and incubated for 15 min in the dark. After incubation the samples were diluted with 1.5 ml of phosphate buffered saline and immediately measured on a cytometer.
For background substraction, one sample was incubated with 10 μl of FITC-labelled un-specific mouse IgG1 (DAKO, Glostrup, Denmark).
For cytometry the Becton-Dickinson FACS-Calibur instrument (settings: FSC: E00; SSC: 337 V; FL-1:600 V) was used. For each measurement 20000 cells were analysed. Results were obtained as mean fluorescence intensity (MFI) calculated using the CellQuest program (Ver. 1.0; Becton-Dickinson).
Inhibition of platelet activation is given as percent reduction of TRAP-6 induced P-Selectin expression in the presence of 5 μmol/l of examples 1-11: […]
(In flow cytometry, cells or beads pass a laser one at a time.)
In the case of `c1ccc(-n2nnc3c(Sc4nc5ccccc5o4)ncnc32)cc1` [Example 9, 7-(2-benzoxazolyl)thio-3-phenyl-1,2,3-triazolo[4,5-d]pyrimidine], the inhibition at 5 µM came to 44%.
Turning to `c1ccc(Cn2nnc3c(Sc4ncco4)ncnc32)cc1` [Example 3, 3-benzyl-7-(2-oxazolyl)thio-1,2,3-triazolo[4,5-d]pyrimidine], the inhibition at 5 µM was determined as 55%.
The same measure, in the same setting: as for `c1ccc(Cn2nnc3c(Sc4ccccn4)ncnc32)cc1` [Example 2, 3-benzyl-7-(2-pyridyl)thio-1,2,3-triazolo-[4,5-d]pyrimidine], the figure is 34%; as for `c1ccc(Cn2nnc3c(Sc4nc5ccccc5o4)ncnc32)cc1` [Example 1, 3-benzyl-7-(2-benzoxazolyl)thio-1,2,3-triazolo[4,5-d]pyrimidine], 49%; as for `Clc1ccccc1Cn1nnc2c(Sc3nc4ccccc4o3)ncnc21` [Example 11, 7-(2-benzoxazolyl)thio-3-o-chlorobenzyl-1,2,3-triazolo[4,5-d]pyrimidine], 80%.
Same read-out and setting: then `Cn1nnc2c(Sc3nc4ccccc4o3)ncnc21` [Example 8, 7-(2-benzoxazolyl)thio-3-methyl-1,2,3-triazolo[4,5-d]pyrimidine], with 38%.
Consider `c1ccc(Cn2nnc3c(Sc4ncc[nH]4)ncnc32)cc1` [Example 5, 3-benzyl-7-(2-imidazolyl)thio-1,2,3-triazolo[4,5-d]pyrimidine], for which the inhibition at 5 µM was 21%.
For `c1ccc(Cn2nnc3c(Sc4nccs4)ncnc32)cc1` [Example 4, 3-benzyl-7-(2-thiazolyl)thio-1,2,3-triazolo[4,5-d]pyrimidine], the inhibition at 5 µM was 45%.
Same read-out and setting: then `COc1ccc(Cn2nnc3c(Sc4nc5ccccc5o4)ncnc32)cc1` [Example 10, 7-(2-benzoxazolyl)thio-3-p-methoxybenzyl-1,2,3-triazolo[4,5-d]pyrimidine], with 60%.
For the compound `Cc1nc(Sc2nc3ccccc3o2)c2nnn(Cc3ccccc3)c2n1` [Example 6, 3-benzyl-7-(2-benzoxazolyl)thio-5-methyl-1,2,3-triazolo[4,5-d]pyrimidine], the inhibition at 5 µM worked out at 39%.
